Test systems include SR; DU-145; KM12; SN12C; EKVX; HCC 2998; MCF7; ACHN; SK-MEL-28; MDA-MB-231; NCI-H23; MOLT-4; SK-MEL-5; SK-MEL-2; K562; U-251; PC-3; NCI-H226; MDA-N; SF-539.
Holding throughout (assay): NCI anticancer screen, dose series, 48 h

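Following 48 hours of exposure in 96-well plates, responses at five concentrations were used to interpolate endpoints linearly. GI50 is the concentration that inhibits growth by half.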 The source made the active and inactive calls. Cut-off read from the data, not from the text of the source: active = GI50 up to about 1.1 µM and inactive = higher.

Consider `CC[S+]1C2=C(CC(C)(C)CC2=O)[N-]c2ccccc21` (stereo not drawn), for which the GI50 in the experiment with SR, in the experiment with DU-145, with KM12, in the experiment with SN12C, in the experiment with EKVX and in the experiment with HCC 2998 was > 100 µM (inactive) each time. In addition, the GI50 in the experiment on MCF7 was 24.4 µM (inactive); in the experiment with ACHN it was > 100 µM (inactive); with SK-MEL-28, > 100 µM (inactive); with MDA-MB-231 it was > 100 µM (inactive); in the experiment on NCI-H23, > 100 µM (inactive); with MOLT-4 it was > 100 µM (inactive). The GI50 in the experiment with SK-MEL-5, in the experiment with SK-MEL-2, in the experiment on K562, in the experiment with U-251, in the experiment with PC-3 and in the experiment with NCI-H226 was > 100 µM (inactive) throughout. For the same molecule, in the experiment on MDA-N, the GI50 was > 100 µM (inactive).
Take `O=C1NN=C2C=C(c3ccc(Cl)cc3)CC(c3cccc(Cl)c3)C12` (stereo not drawn): the GI50 is 18.2 µM (inactive) in the experiment with SR; 64.3 µM (inactive) in the experiment on DU-145; 28.6 µM (inactive) in the experiment with KM12; 22.5 µM (inactive) with SN12C; 22.1 µM (inactive) with EKVX; 17.1 µM (inactive) with HCC 2998. The GI50 with MCF7 was 17.3 µM (inactive); in the experiment with ACHN it was 19.9 µM (inactive); in the experiment with MDA-MB-231, 17.7 µM (inactive); in the experiment with SF-539 it was 24.5 µM (inactive); in the experiment on NCI-H23, 32.2 µM (inactive); in the experiment with MOLT-4 it was 17.9 µM (inactive). Besides, the GI50 was 18.5 µM (inactive) in the experiment on SK-MEL-5; 19.7 µM (inactive) in the experiment on SK-MEL-2; 17.1 µM (inactive) with K562; 18.9 µM (inactive) in the experiment with U-251; 31.8 µM (inactive) in the experiment with PC-3; 20.4 µM (inactive) in the experiment on NCI-H226. Further, the GI50 with MDA-N is 23.4 µM (inactive).
With `Cn1c(O)c(C2=Nc3ccccc3C2=O)c2ccccc21`, the GI50 in the experiment on SR, in the experiment with DU-145, in the experiment on KM12, in the experiment on SN12C, in the experiment with EKVX and in the experiment with HCC 2998 was > 100 µM (inactive) each time. Also, the GI50 in the experiment on MCF7, with ACHN, with SK-MEL-28, in the experiment with MDA-MB-231, with NCI-H23 and in the experiment with MOLT-4 was > 100 µM (inactive) in each case. Also, the GI50 in the experiment on SK-MEL-5, with SK-MEL-2, in the experiment on K562, with U-251, with PC-3 and with NCI-H226 was > 100 µM (inactive) in each case. Besides, the GI50 with MDA-N is > 100 µM (inactive).
For `Cn1c2c(c3ccccc31)CC(=O)N1CCCC(C1)CC21OCCO1` (stereo not drawn), the GI50 in the experiment with SR is > 100 µM (inactive); in the experiment on DU-145, > 100 µM (inactive); in the experiment on KM12 it was > 100 µM (inactive); in the experiment on SN12C it was 38.2 µM (inactive); with EKVX it was > 100 µM (inactive); with HCC 2998 it was > 100 µM (inactive). In addition, the GI50 in the experiment on MCF7, in the experiment with ACHN, in the experiment on SK-MEL-28, in the experiment on MDA-MB-231, in the experiment with NCI-H23 and with MOLT-4 was > 100 µM (inactive) each time. Moreover, the GI50 in the experiment with SK-MEL-5, in the experiment on SK-MEL-2, with K562, in the experiment on U-251, in the experiment on PC-3 and with NCI-H226 was > 100 µM (inactive) throughout. In the experiment on MDA-N, the GI50 is 33.5 µM (inactive).
As to `CC1CN=C(Nc2ccc(F)c(Cl)c2)S1` (stereo not drawn), the GI50 is 31.5 µM (inactive) in the experiment on SR; > 100 µM (inactive) in the experiment on DU-145; > 100 µM (inactive) in the experiment with KM12; 43.2 µM (inactive) in the experiment with EKVX; > 100 µM (inactive) in the experiment with HCC 2998; > 100 µM (inactive) with MCF7. Moreover, the GI50 with ACHN was > 100 µM (inactive); in the experiment on SK-MEL-28 it was > 100 µM (inactive); in the experiment on MDA-MB-231, > 100 µM (inactive); with SF-539 it was > 100 µM (inactive); in the experiment with NCI-H23, 51.5 µM (inactive); in the experiment on MOLT-4, > 10 µM (inactive). Moreover, the GI50 with SK-MEL-5 was 58.5 µM (inactive); in the experiment with SK-MEL-2, > 100 µM (inactive); with K562, 62.1 µM (inactive); in the experiment on U-251, 95.3 µM (inactive); with PC-3 it was 72.4 µM (inactive); in the experiment on NCI-H226, > 100 µM (inactive). Further, in the experiment on MDA-N, the GI50 was > 100 µM (inactive).
With `CSC(=S)N/N=C(\C)c1ccc(S(=O)(=O)N(C)c2ccccc2)cc1`, the GI50 was 5.19 µM (inactive) with SR; > 100 µM (inactive) with DU-145; 21.9 µM (inactive) in the experiment with KM12; > 100 µM (inactive) with SN12C; 21.8 µM (inactive) in the experiment with EKVX; > 100 µM (inactive) with HCC 2998. Also, the GI50 is 18.2 µM (inactive) in the experiment on MCF7; 22.6 µM (inactive) in the experiment with ACHN; 34.8 µM (inactive) in the experiment on SK-MEL-28; 98.4 µM (inactive) in the experiment on MDA-MB-231; 48.3 µM (inactive) in the experiment with SF-539; 19.1 µM (inactive) in the experiment with NCI-H23. Also, the GI50 was 19 µM (inactive) in the experiment on MOLT-4; 35.3 µM (inactive) with SK-MEL-2; 13.9 µM (inactive) in the experiment on K562; 24.7 µM (inactive) in the experiment with U-251; 19.3 µM (inactive) in the experiment on PC-3; 20.1 µM (inactive) in the experiment on NCI-H226. Further, in the experiment on MDA-N, the GI50 is 30.3 µM (inactive).
Turning to `O=C1OC2(C(F)(F)F)Oc3ccccc3CN2C12CCCCC2` (stereo not drawn), the GI50 in the experiment with SR is 22.8 µM (inactive); in the experiment with DU-145, 32.3 µM (inactive); in the experiment on KM12, 23.8 µM (inactive); in the experiment with SN12C, 24.7 µM (inactive); in the experiment with EKVX, 38.2 µM (inactive); in the experiment with HCC 2998 it was 33.1 µM (inactive). Also, the GI50 is 39.1 µM (inactive) in the experiment on MCF7; 19.7 µM (inactive) with ACHN; 55.2 µM (inactive) in the experiment with SK-MEL-28; 24.2 µM (inactive) in the experiment with MDA-MB-231; 33.4 µM (inactive) in the experiment on SF-539; 25.4 µM (inactive) with NCI-H23. For the same molecule, the GI50 was 18.1 µM (inactive) in the experiment on MOLT-4; 20.4 µM (inactive) in the experiment with K562; 26 µM (inactive) in the experiment on U-251; 27.6 µM (inactive) with PC-3; 27.4 µM (inactive) in the experiment on NCI-H226; 29.1 µM (inactive) with MDA-N.
Turning to `COc1cccc(-c2cc(=O)c3cc(N4CCCCC4)ccc3[nH]2)c1`, the GI50 was < 0.01 µM (active) in the experiment on SR; 0.0622 µM (active) with DU-145; < 0.01 µM (active) in the experiment with KM12; 0.0332 µM (active) in the experiment with SN12C; 0.0434 µM (active) with HCC 2998; < 0.01 µM (active) in the experiment with MCF7. Also, the GI50 with ACHN is < 0.0186 µM (active); with SK-MEL-28, > 100 µM (inactive); with MDA-MB-231 it was 0.0432 µM (active); in the experiment on SF-539 it was < 0.01 µM (active); in the experiment on NCI-H23, 0.0204 µM (active); with MOLT-4 it was 0.024 µM (active). In addition, the GI50 in the experiment on SK-MEL-5 is < 0.01 µM (active); in the experiment on SK-MEL-2 it was 0.521 µM (active); with K562 it was < 0.01 µM (active); with U-251 it was < 0.0147 µM (active); in the experiment with PC-3, < 0.0129 µM (active); with NCI-H226 it was 0.0127 µM (active). For the same molecule, the GI50 in the experiment with MDA-N is < 0.01 µM (active).
`O=C(c1ccco1)C1CC(c2ccc3ccccc3c2O)=NN1` (stereo not drawn): the GI50 in the experiment on SR is 20.2 µM (inactive); in the experiment on DU-145, > 100 µM (inactive); in the experiment on KM12 it was > 100 µM (inactive); with SN12C, > 100 µM (inactive); in the experiment with HCC 2998, > 100 µM (inactive); with MCF7, 46.5 µM (inactive). In addition, the GI50 with ACHN was > 100 µM (inactive); in the experiment with SK-MEL-28, > 100 µM (inactive); in the experiment on MDA-MB-231, 30.8 µM (inactive); in the experiment on SF-539 it was > 100 µM (inactive); with NCI-H23, > 100 µM (inactive); with MOLT-4, 36.7 µM (inactive). For the same molecule, the GI50 with SK-MEL-5 was 89.5 µM (inactive); in the experiment with SK-MEL-2 it was 71 µM (inactive); with K562, 38.6 µM (inactive); in the experiment on U-251 it was > 100 µM (inactive); in the experiment on PC-3 it was 70.8 µM (inactive); in the experiment on NCI-H226, > 100 µM (inactive). For the same molecule, in the experiment on MDA-N, the GI50 is 59.4 µM (inactive).
Regarding `CCOC(=O)c1cc(C(=O)c2ccccc2)n2nc(-c3ccc(Cl)cc3)ccc12`, the GI50 in the experiment with SR is 72.6 µM (inactive); in the experiment with DU-145, 27.6 µM (inactive); in the experiment on KM12, 20 µM (inactive); in the experiment on SN12C, 25.2 µM (inactive); in the experiment with EKVX it was 21.8 µM (inactive); with HCC 2998, 23.2 µM (inactive). Besides, the GI50 in the experiment with MCF7 is 20.9 µM (inactive); with ACHN it was 15 µM (inactive); with SK-MEL-28, 28.4 µM (inactive); in the experiment on MDA-MB-231, 36.2 µM (inactive); in the experiment on NCI-H23, 27 µM (inactive); in the experiment with MOLT-4 it was > 100 µM (inactive). The GI50 in the experiment on SK-MEL-5 was 17.4 µM (inactive); in the experiment with SK-MEL-2, 17.4 µM (inactive); with K562, > 100 µM (inactive); in the experiment on U-251 it was 23.1 µM (inactive); in the experiment with PC-3 it was 15.5 µM (inactive); in the experiment on NCI-H226, 20.4 µM (inactive). Moreover, in the experiment on MDA-N, the GI50 is 48.8 µM (inactive).
As for `O=c1c2cc(-c3ccccc3)sc2nc2n1N=C(c1ccccc1)CS2`, the GI50 was > 100 µM (inactive) with SR; 94.4 µM (inactive) in the experiment with DU-145; 31 µM (inactive) in the experiment with KM12; 27 µM (inactive) with SN12C; 24.9 µM (inactive) in the experiment with EKVX; 36.5 µM (inactive) in the experiment with HCC 2998. For the same molecule, the GI50 was 14.6 µM (inactive) with MCF7; 11.4 µM (inactive) in the experiment with ACHN; 23.6 µM (inactive) with SK-MEL-28; 39.8 µM (inactive) with MDA-MB-231; 27.9 µM (inactive) with SF-539; 76 µM (inactive) in the experiment on NCI-H23. The GI50 was > 100 µM (inactive) in the experiment with MOLT-4; 20.6 µM (inactive) in the experiment on SK-MEL-5; > 100 µM (inactive) in the experiment on K562; 19.7 µM (inactive) in the experiment with U-251; 28.9 µM (inactive) in the experiment with PC-3; 30.6 µM (inactive) with NCI-H226. Also, the GI50 in the experiment on MDA-N was 34.9 µM (inactive).
